≈ marks a conversion by molar mass, not a printed value. Calls of active or inactive are those of the source. The rule behind the calls is not given here.
Legend:
Escherichia coli [1] = experiment: Antibacterial activity against Escherichia coli ATCC 25922 incubated for 16 to 18 hrs by broth dilution assay; assay type: functional; details: time 16-18 hrs
Pseudomonas aeruginosa = experiment: Antibacterial activity against Pseudomonas aeruginosa ATCC BAA-427 incubated for 16 to 18 hrs by broth dilution assay; assay type: functional; details: time 16-18 hrs
[2] = Hemolytic activity in human RBC measured after 40 mins by absorbance based assay; assay type: toxicity, cell-based, Erythrocyte; details: human red blood cells
Staphylococcus aureus [3] = experiment: Antibacterial activity against methicillin-resistant Staphylococcus aureus 33591 incubated for 16 to 18 hrs by broth dilution assay; assay type: functional; details: time 16-18 hrs
Klebsiella pneumoniae = experiment: Antibacterial activity against Klebsiella pneumoniae ATCC 27736 incubated for 16 to 18 hrs by broth dilution assay; assay type: functional; details: time 16-18 hrs
Staphylococcus aureus [4] = experiment: Antibacterial activity against methicillin-resistant Staphylococcus aureus BAA-44 incubated for 16 to 18 hrs by broth dilution assay; assay type: functional; details: time 16-18 hrs
[5] = Retention time of compound by RP-HPLC method; assay type: physicochemical
Bacillus subtilis = experiment: Antibacterial activity against Bacillus subtilis 6633 incubated for 16 to 18 hrs by broth dilution assay; assay type: functional; details: time 16-18 hrs
[6] = Hemolytic activity in human RBC at 100 uM measured after 40 mins by absorbance based assay relative to control; assay type: toxicity, cell-based, Erythrocyte; details: human red blood cells, read-out: Activity
Staphylococcus aureus [7] = experiment: Antibacterial activity against Staphylococcus aureus ATCC 25923 incubated for 16 to 18 hrs by broth dilution assay; assay type: functional; details: time 16-18 hrs
[8] = Cytotoxicity against rat L6 cells assessed as cell viability at 100 uM incubated for 24 hrs by MTT assay relative to control; assay type: toxicity, cell-based; details: L6 cells, read-out: Activity
[9] = Hemolytic activity in human RBC assessed as disruption of membrane integrity by Alexa Fluor-Annexin V staining based analysis; assay type: toxicity, cell-based; details: erythrocyte
Staphylococcus aureus [10] = experiment: Disruption of membrane integrity in Staphylococcus aureus ATCC 25923 by PI staining based analysis; assay type: functional, organism-based
Staphylococcus aureus [11] = experiment: Bactericidal activity against Staphylococcus aureus ATCC 25923 incubated for 16 to 18 hrs; assay type: functional; details: time 16-18 hrs
[12] = test system: Mycolicibacterium smegmatis; experiment: Antitubercular activity against Mycobacterium smegmatis incubated for 24 hrs by rezasurin dye based assay; assay type: functional
Staphylococcus aureus [13] = experiment: Antibacterial activity against Staphylococcus aureus ATCC 25923 incubated for 16 to 18 hrs in presence of 10 percent human serum by broth dilution assay; assay type: functional; details: time 16-18 hrs
Escherichia coli [14] = experiment: Induction of membrane depolarization in Escherichia coli ATCC 25922 by diSC3-5 dye based analysis; assay type: functional, organism-based
Escherichia coli [15] = experiment: Disruption of membrane integrity in Escherichia coli ATCC 25922 by PI staining based analysis; assay type: functional, organism-based
Escherichia coli [16] = experiment: Disruption of plasma membrane integrity in Escherichia coli ATCC 25922 by SYTOX-Green uptake assay; assay type: functional, organism-based
[17] = Cytotoxicity against mouse 3T3-L1 cells assessed as cell viability at 100 uM incubated for 24 hrs by MTT assay relative to control; assay type: toxicity, cell-based; details: 3T3-L1 cells, read-out: Activity
Escherichia coli [18] = experiment: Bactericidal activity against Escherichia coli ATCC 25922 incubated for 16 to 18 hrs; assay type: functional; details: time 16-18 hrs
Staphylococcus aureus [19] = experiment: Bactericidal activity against Staphylococcus aureus ATCC 25923 at MIC incubated for 45 mins by time kill assay; assay type: functional, organism-based
Staphylococcus aureus [20] = experiment: Disruption of plasma membrane integrity in Staphylococcus aureus ATCC 25923 by SYTOX-Green uptake assay; assay type: functional, organism-based
Escherichia coli [21] = experiment: Bactericidal activity against Escherichia coli ATCC 25922 at MIC incubated for 45 mins by time kill assay; assay type: functional, organism-based
Staphylococcus aureus [22] = experiment: Induction of membrane depolarization in Staphylococcus aureus ATCC 25923 by diSC3-5 dye based analysis; assay type: functional, organism-based
Escherichia coli [23] = experiment: Antibacterial activity against Escherichia coli ATCC 25922 incubated for 16 to 18 hrs in presence of 10 percent human serum by broth dilution assay; assay type: functional; details: time 16-18 hrs
Escherichia coli [24] = experiment: Induction of cell membrane damage in Escherichia coli ATCC 25922 at 3 times MIC incubated for 60 mins by SEM analysis; assay type: functional, organism-based
Staphylococcus aureus [25] = experiment: Induction of cell membrane damage in Staphylococcus aureus ATCC 25923 at 3 times MIC incubated for 60 mins by SEM analysis; assay type: functional, organism-based

| Molecule | MIC (Escherichia coli [1]) | MIC (Pseudomonas aeruginosa) | HC50 at 40 min [2] | MIC (Staphylococcus aureus [3]) | MIC (Klebsiella pneumoniae) | MIC (Staphylococcus aureus [4]) | Retention_time [5] | MIC (Bacillus subtilis) | MIC (Staphylococcus aureus [7]) | other results |
| --- | --- | --- | --- | --- | --- | --- | --- | --- | --- | --- |
| H-RLRLRLRLRLRL-OH | 1.9 µM | 15.3 µM | 0.279 mM | 15.3 µM | 30.6 µM | 15.3 µM | 15.99 min | 3.8 µM | 3.8 µM | hemolysis at 40 min, 100 µM [6]: 17% |
| H-LGRLLGRLLGRLLGRL-OH | 1.8 µM | 3.5 µM | 0.051 mM | 1.8 µM | 1.8 µM | 1.8 µM | 20.87 min | 1.8 µM | 1.8 µM | hemolysis at 40 min, 100 µM [6]: 95% |
| CC1(C)S[C@@H]2[C@H](NC(=O)[C@H](N)c3ccccc3)C(=O)N2[C@H]1C(=O)O [AMPICILLIN] | 12.5 µM (≈ 4.37 µg/mL) | 25 µM (≈ 8.74 µg/mL) | – | 12.5 µM (≈ 4.37 µg/mL) | 100 µM (≈ 34.9 µg/mL) | 25 µM (≈ 8.74 µg/mL) | – | 1.6 µM (≈ 0.559 µg/mL) | 3.1 µM (≈ 1.08 µg/mL) | – |
| H-VLGRLVLGRL-OH | 183 µM | 183 µM | 2 mM | > 183 µM | 183 µM | > 183 µM | 16.21 min | > 183 µM | 183 µM | – |
| H-KVKVKVKVKVKVKV-OH | 7.8 µM | 31.1 µM | 0.062 mM | 15.5 µM | 7.8 µM | 15.5 µM | 10.73 min | 3.8 µM | 7.8 µM | hemolysis at 40 min, 100 µM [6]: 80% |
| H-GRLVGRLVGRLV-OH | 155 µM | 155 µM | 2 mM | > 155 µM | 155 µM | > 155 µM | 13.4 min | > 155 µM | > 155 µM | – |
| H-RLRLRLRLRLRLRL-OH | 3.3 µM | 13.1 µM | 0.249 mM | 13.1 µM | 26.2 µM | 13.1 µM | 16.72 min | 3.3 µM | 3.3 µM | hemolysis at 40 min, 100 µM [6]: 20% |
| H-KVKVKVKVKV-OH | 21.7 µM | 21.7 µM | 0.283 mM | 43.4 µM | 43.4 µM | 21.7 µM | 10.88 min | 10.9 µM | 21.7 µM | hemolysis at 40 min, 100 µM [6]: 18% |
| H-KVLGKVLGKVLGKVLG-OH | 3.9 µM | 15.6 µM | 2 mM | 7.8 µM | 7.8 µM | 3.9 µM | 20.12 min | 15.6 µM | 7.8 µM | viability at 24 h, 100 µM [8]: 75%; Activity [9]: Non-toxic; Activity (Staphylococcus aureus [10]): Active; MBC (Staphylococcus aureus [11]): 12.6 µM; MIC [12]: > 10 µM; MIC (Staphylococcus aureus [13]): 12.6 µM; Activity (Escherichia coli [14]): Active; Activity (Escherichia coli [15]): Active; Activity (Escherichia coli [16]): Active; viability at 24 h, 100 µM [17]: 75%; MBC (Escherichia coli [18]): 3.9 µM; Activity (Staphylococcus aureus [19]): Active; Activity (Staphylococcus aureus [20]): Active; Activity (Escherichia coli [21]): Active; Activity (Staphylococcus aureus [22]): Active; MIC (Escherichia coli [23]): 3.9 µM |
| H-LGRLVLGRLV-OH | 91.4 µM | > 183 µM | 2 mM | > 183 µM | > 183 µM | > 183 µM | 16.21 min | > 183 µM | 183 µM | – |
| H-VLGRLVVLGRLV-OH | 77.4 µM | > 155 µM | 2 mM | > 155 µM | > 155 µM | > 155 µM | 17.91 min | > 155 µM | > 155 µM | – |
| H-RLVRLVRLVRLV-OH | 4.2 µM | 8.4 µM | 2 mM | 4.2 µM | 8.4 µM | 4.2 µM | 19.25 min | 2.1 µM | 4.2 µM | viability at 24 h, 100 µM [8]: 75%; Activity [9]: Non-toxic; Activity (Staphylococcus aureus [10]): Active; MBC (Staphylococcus aureus [11]): 8.4 µM; Activity (Escherichia coli [24]): Active; MIC [12]: 5 µM; MIC (Staphylococcus aureus [13]): 16.8 µM; Activity (Escherichia coli [14]): Active; Activity (Escherichia coli [15]): Active; Activity (Escherichia coli [16]): Active; viability at 24 h, 100 µM [17]: 75%; MBC (Escherichia coli [18]): 8.4 µM; Activity (Staphylococcus aureus [19]): Active; Activity (Staphylococcus aureus [25]): Active; Activity (Staphylococcus aureus [20]): Active; Activity (Escherichia coli [21]): Active; Activity (Staphylococcus aureus [22]): Active; MIC (Escherichia coli [23]): 16.8 µM |
| H-KVLGRKVLGR-OH | 178 µM | > 178 µM | 2 mM | > 178 µM | > 178 µM | > 178 µM | 10.61 min | > 178 µM | 178 µM | – |
| H-KVLGKVLGKVLG-OH | > 165 µM | > 165 µM | 2 mM | > 165 µM | > 165 µM | > 165 µM | 15.26 min | > 165 µM | > 165 µM | – |
| CO[C@H]1/C=C/O[C@@]2(C)Oc3c(C)c(O)c4c(O)c(c(/C=N/N5CCN(C)CC5)c(O)c4c3C2=O)NC(=O)/C(C)=C\C=C\[C@H](C)[C@H](O)[C@@H](C)[C@@H](O)[C@@H](C)[C@H](OC(C)=O)[C@@H]1C [RIFAMPIN] | – | – | – | – | – | – | – | – | – | MIC [12]: 0.25 µM (≈ 0.206 µg/mL) |
| H-LGRLVLGRLVLGRLV-OH | 7.6 µM | > 122 µM | 2 mM | > 122 µM | > 122 µM | 61.2 µM | 18.77 min | > 122 µM | 15.3 µM | – |
| H-VLGRVLGRVLGR-OH | > 155 µM | > 155 µM | 2 mM | > 155 µM | > 155 µM | > 155 µM | 15.4 min | > 155 µM | > 155 µM | – |
| H-KVLGRKVLGRKVLGR-OH | 29.8 µM | > 119 µM | 2 mM | > 119 µM | > 119 µM | > 119 µM | 11.73 min | > 119 µM | 29.8 µM | – |
| H-KVKVKVKVKVKV-OH | 18.1 µM | 36.2 µM | 0.118 mM | 36.2 µM | 72.4 µM | 18.1 µM | 10.81 min | 9.1 µM | 36.2 µM | hemolysis at 40 min, 100 µM [6]: 42% |
| H-LGRLGRLGRLGRLGR-OH | 1.9 µM | 60.6 µM | 2 mM | > 121 µM | > 121 µM | 60.6 µM | 16.23 min | 30.3 µM | 1.9 µM | – |
| H-LGRLGRLGRLGR-OH | 15.5 µM | > 151 µM | 2 mM | > 151 µM | > 151 µM | > 151 µM | 20.45 min | 151 µM | > 151 µM | – |
| H-GRLGRLGRLGRL-OH | 18.9 µM | 75.6 µM | 2 mM | 18.9 µM | > 151 µM | 18.9 µM | 20.87 min | 18.9 µM | 4.7 µM | – |
| H-KVLGRLKVLGRL-OH | 74 µM | > 147 µM | 2 mM | > 147 µM | > 147 µM | > 147 µM | 16.81 min | > 147 µM | > 147 µM | – |
| H-VLGRLVLGRLVLGRL-OH | 7.6 µM | > 122 µM | 2 mM | 122 µM | > 122 µM | 61.2 µM | 19.07 min | > 122 µM | 7.6 µM | – |

Source: ChEMBL document CHEMBL6087460, “Generating a Peptide Library Using the Repeats of Amino Acid Scaffolds Created by Sliding the Framework of a 7-mer Human Chemerin Segment and Discovery of Potent Antibacterial and Antimycobacterial Peptides” (J Med Chem, 2025)
